The kinase profiling compilation of Christmann-Franck et al. (2016)
“And” between values parts separate entries of the source, which are not always exact repeats. Identical values can stand only once.

How the values were obtained:
Experiment in all cases: radiometric filter-binding kinase assay, Kinase HotSpot
Conditions in all cases: compound 0.5 µM; ATP 10 µM
CDK2 CCNE1 (human) = CDK2 CCNE1 (human) (UniProt P24941+P24864)
CAMKK1 (human) = CAMKK1 (human) (UniProt Q8N5S9)
JAK2 JH1 JH2 (human) = JAK2 JH1 JH2 (human) (UniProt O60674)
PKN1 (human) = PKN1 (human) (UniProt Q16512)
[1] = target: TYK2 JH1 catalytic (human) (UniProt P29597)
TTK (human) = TTK (human) (UniProt P33981)
PRKCG (human) = PRKCG (human) (UniProt P05129)
CSNK1G3 (human) = CSNK1G3 (human) (UniProt Q9Y6M4)
STK33 (human) = STK33 (human) (UniProt Q9BYT3)
PIM3 (human) = PIM3 (human) (UniProt Q86V86)
FLT1 (human) = FLT1 (human) (UniProt P17948)
EPHB4 (human) = EPHB4 (human) (UniProt P54760)
[2] = system: PRKCQ (human), Q04759 [P330L]
PAK1 (human) = PAK1 (human) (UniProt Q13153)
PRKCA (human) = PRKCA (human) (UniProt P17252)
MST1R (human) = MST1R (human) (UniProt Q04912)
MAPK14 (human) = MAPK14 (human) (UniProt Q16539)
FGFR2 (human) = FGFR2 (human) (UniProt P21802)
DYRK2 (human) = DYRK2 (human) (UniProt Q92630)
RPS6KA2 KD1 KD2 (human) = RPS6KA2 KD1 KD2 (human) (UniProt Q15349)
MAPK1 (human) = MAPK1 (human) (UniProt P28482)
RAF1 (human) = RAF1 (human) (UniProt P04049)
CAMKK2 (human) = CAMKK2 (human) (UniProt Q96RR4)
LYN (human) = LYN (human) (UniProt P07948)
NTRK2 (human) = NTRK2 (human) (UniProt Q16620)
NEK4 (human) = NEK4 (human) (UniProt P51957)
FYN (human) = FYN (human) (UniProt P06241)
PRKCB2 (human) = PRKCB2 (human) (UniProt P05771)
CDK7 CCNH MNAT1 (human) = CDK7 CCNH MNAT1 (human) (UniProt P50613+P51948+P51946)
CAMK2A (human) = CAMK2A (human) (UniProt Q9UQM7)
CAMK1D (human) = CAMK1D (human) (UniProt Q8IU85)
CSNK1A1 (human) = CSNK1A1 (human) (UniProt P48729)
FGFR3 (human) = FGFR3 (human) (UniProt P22607)
DAPK3 (human) = DAPK3 (human) (UniProt O43293)
DYRK1A (human) = DYRK1A (human) (UniProt Q13627)
FER (human) = FER (human) (UniProt P16591)
MKNK2 (human) = MKNK2 (human) (UniProt Q9HBH9)
MAPK10 (human) = MAPK10 (human) (UniProt P53779)
MAPK8 (human) = MAPK8 (human) (UniProt P45983)
AKT1 (human) = AKT1 (human) (UniProt P31749)
CDK5 CDK5R1 p35 (human) = CDK5 CDK5R1 p35 (human) (UniProt Q00535+Q15078)

Chain of LYN (human) (P07948 whole entry, looked up): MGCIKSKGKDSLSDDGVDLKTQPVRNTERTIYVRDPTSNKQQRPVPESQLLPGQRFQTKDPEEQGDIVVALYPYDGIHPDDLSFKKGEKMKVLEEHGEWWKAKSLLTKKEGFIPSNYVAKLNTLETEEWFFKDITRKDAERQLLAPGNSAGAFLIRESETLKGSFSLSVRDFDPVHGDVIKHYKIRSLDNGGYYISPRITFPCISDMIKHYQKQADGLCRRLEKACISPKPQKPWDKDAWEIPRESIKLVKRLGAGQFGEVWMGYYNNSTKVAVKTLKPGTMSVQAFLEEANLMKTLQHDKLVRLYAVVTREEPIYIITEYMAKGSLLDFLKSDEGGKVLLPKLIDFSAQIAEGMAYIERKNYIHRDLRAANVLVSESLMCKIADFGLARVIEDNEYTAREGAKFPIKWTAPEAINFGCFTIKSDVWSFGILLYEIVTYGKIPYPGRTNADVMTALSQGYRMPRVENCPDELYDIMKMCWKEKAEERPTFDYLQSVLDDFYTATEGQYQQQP
Chain of FGFR3 (human) (P22607 whole entry, looked up): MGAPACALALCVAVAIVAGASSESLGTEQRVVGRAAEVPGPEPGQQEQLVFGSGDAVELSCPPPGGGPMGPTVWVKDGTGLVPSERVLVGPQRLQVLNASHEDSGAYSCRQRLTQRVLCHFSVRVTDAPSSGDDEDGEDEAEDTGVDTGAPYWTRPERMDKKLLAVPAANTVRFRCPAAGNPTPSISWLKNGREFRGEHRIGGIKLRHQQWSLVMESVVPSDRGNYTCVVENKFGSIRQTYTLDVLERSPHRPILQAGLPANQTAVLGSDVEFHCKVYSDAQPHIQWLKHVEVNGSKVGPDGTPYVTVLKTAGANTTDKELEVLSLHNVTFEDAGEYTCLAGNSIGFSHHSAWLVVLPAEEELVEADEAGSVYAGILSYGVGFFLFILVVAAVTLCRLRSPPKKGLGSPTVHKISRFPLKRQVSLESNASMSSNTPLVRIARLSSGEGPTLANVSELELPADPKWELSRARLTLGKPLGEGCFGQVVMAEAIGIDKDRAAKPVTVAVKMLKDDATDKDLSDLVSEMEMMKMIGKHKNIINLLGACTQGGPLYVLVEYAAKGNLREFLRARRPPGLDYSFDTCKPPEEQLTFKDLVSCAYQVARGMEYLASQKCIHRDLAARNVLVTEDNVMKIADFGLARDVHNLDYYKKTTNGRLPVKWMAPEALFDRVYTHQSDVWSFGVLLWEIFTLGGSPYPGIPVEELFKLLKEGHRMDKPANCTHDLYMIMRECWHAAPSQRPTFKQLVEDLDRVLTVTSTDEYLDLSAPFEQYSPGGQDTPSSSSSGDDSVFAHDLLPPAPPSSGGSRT
Chain of MAPK14 (human) (Q16539 whole entry, looked up): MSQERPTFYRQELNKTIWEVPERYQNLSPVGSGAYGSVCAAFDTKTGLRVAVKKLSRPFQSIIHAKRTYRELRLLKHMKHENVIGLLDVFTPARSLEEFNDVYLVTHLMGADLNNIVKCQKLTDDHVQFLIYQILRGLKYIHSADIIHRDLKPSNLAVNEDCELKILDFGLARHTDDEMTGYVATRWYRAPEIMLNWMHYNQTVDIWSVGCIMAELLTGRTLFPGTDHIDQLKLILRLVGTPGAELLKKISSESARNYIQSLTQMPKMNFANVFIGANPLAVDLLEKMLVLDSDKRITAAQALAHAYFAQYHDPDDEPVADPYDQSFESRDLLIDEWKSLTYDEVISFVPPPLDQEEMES
Chain of MAPK8 (human) (P45983 whole entry, looked up): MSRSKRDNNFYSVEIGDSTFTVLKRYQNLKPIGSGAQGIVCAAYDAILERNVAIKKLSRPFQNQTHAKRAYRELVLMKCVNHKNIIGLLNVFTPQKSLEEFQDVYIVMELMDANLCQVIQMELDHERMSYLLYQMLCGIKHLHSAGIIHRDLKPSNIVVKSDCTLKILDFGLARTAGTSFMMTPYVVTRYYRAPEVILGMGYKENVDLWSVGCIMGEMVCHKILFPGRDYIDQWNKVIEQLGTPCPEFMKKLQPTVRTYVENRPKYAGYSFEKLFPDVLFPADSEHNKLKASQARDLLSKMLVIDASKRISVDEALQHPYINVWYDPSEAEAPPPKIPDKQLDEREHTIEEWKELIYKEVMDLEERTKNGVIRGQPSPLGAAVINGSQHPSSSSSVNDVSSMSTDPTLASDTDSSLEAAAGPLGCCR
Chain of FGFR2 (human) (P21802 whole entry, looked up): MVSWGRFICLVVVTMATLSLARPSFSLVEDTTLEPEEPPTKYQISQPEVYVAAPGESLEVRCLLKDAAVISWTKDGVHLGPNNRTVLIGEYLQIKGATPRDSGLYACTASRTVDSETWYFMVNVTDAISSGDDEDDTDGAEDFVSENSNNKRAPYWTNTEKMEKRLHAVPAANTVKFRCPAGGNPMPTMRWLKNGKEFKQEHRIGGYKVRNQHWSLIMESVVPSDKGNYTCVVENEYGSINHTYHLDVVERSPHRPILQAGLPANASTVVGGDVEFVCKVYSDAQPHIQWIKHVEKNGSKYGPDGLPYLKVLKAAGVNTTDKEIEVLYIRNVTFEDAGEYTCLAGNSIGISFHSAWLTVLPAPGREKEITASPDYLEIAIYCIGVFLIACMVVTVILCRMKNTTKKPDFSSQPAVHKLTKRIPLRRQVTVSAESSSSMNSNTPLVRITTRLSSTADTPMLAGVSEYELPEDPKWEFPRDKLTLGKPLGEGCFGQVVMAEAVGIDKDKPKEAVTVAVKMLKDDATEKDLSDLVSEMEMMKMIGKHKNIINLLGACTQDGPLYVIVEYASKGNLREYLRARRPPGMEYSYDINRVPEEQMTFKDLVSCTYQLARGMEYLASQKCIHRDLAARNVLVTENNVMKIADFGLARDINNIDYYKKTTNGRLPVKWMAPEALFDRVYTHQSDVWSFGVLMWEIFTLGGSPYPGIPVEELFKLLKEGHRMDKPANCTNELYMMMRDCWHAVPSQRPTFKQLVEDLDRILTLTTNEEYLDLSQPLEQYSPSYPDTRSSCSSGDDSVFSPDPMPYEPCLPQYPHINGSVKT
Chain of PKN1 (human) (Q16512 whole entry, looked up): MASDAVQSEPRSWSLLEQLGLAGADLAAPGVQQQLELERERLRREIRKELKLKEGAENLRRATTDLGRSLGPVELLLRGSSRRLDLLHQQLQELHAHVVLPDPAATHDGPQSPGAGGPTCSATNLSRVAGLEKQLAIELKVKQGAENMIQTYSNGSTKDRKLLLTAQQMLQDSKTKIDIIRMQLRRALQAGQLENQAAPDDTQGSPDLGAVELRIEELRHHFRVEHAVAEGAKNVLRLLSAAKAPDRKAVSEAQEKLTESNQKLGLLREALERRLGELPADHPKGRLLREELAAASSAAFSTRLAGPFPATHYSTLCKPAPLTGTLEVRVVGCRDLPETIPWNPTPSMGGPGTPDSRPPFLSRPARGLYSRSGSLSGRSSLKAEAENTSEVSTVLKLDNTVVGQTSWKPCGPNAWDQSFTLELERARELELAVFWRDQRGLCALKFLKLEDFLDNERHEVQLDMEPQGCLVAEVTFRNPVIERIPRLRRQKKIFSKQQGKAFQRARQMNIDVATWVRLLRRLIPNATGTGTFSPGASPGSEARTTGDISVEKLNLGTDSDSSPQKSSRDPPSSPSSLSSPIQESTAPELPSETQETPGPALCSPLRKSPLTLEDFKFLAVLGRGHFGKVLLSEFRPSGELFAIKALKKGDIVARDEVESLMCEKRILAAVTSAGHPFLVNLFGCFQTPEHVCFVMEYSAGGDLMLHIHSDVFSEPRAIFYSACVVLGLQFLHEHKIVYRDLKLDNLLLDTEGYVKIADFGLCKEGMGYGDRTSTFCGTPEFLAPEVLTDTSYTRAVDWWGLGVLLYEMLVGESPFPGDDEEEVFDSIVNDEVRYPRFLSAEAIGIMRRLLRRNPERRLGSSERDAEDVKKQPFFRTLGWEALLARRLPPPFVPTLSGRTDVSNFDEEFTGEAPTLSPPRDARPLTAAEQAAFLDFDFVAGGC
Chain of PRKCB2 (human) (P05771 whole entry, looked up): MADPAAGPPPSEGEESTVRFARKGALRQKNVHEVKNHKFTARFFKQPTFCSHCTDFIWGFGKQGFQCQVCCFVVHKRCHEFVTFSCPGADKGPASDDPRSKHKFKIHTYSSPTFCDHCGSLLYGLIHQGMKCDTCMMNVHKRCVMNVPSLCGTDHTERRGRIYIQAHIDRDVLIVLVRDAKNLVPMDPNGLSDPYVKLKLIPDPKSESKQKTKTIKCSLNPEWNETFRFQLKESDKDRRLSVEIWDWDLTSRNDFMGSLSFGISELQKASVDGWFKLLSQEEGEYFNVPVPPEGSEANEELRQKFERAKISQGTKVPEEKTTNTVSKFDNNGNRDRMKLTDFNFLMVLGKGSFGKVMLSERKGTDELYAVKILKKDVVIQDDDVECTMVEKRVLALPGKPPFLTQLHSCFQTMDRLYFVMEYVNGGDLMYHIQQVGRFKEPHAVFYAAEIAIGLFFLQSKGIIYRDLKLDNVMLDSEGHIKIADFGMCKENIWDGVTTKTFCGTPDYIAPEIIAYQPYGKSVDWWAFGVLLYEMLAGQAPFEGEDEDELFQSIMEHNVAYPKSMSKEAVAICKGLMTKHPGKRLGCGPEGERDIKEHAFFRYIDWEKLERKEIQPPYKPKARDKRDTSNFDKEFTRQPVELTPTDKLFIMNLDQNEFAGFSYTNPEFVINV
Chain of CDK2 CCNE1 (human) (P24864 whole entry, looked up, other chains not shown): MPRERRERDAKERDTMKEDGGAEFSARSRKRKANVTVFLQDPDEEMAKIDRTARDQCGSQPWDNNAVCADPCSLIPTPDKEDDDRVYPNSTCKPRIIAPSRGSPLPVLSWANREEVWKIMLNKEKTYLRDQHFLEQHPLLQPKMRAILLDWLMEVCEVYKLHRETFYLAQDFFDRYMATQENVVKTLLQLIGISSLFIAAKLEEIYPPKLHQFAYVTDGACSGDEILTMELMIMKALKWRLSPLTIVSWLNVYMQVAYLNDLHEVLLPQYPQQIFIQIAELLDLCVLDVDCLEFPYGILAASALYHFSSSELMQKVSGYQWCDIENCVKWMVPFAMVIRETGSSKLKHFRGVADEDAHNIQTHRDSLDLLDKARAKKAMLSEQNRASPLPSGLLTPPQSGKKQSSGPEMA

For `N#C/C(=C\c1ccc(O)c(O)c1)C(=O)NCc1ccccc1`, the residual activity (CDK2 CCNE1 (human)) was 96.4%, the residual activity (CAMKK1 (human)) was 102% and the residual activity (JAK2 JH1 JH2 (human)) was 98.1%. The residual activity (PKN1 (human)) was 97.6%, the residual activity [1] was 97.1% and the residual activity (TTK (human)) was 103%. The residual activity (PRKCG (human)) was 97.2%, the residual activity (CSNK1G3 (human)) was 104% and the residual activity (STK33 (human)) was 94.9%. It also gave a residual activity (PIM3 (human)) of 95.8%, a residual activity (FLT1 (human)) of 88% and a residual activity (EPHB4 (human)) of 88.2%. The residual activity [2] was 103%, the residual activity (PAK1 (human)) was 97.7% and the residual activity (PRKCA (human)) was 99.1%. The residual activity (MST1R (human)) was 102%, the residual activity (MAPK14 (human)) was 108% and the residual activity (FGFR2 (human)) was 98.1%. The residual activity (DYRK2 (human)) was 103%, the residual activity (RPS6KA2 KD1 KD2 (human)) was 94.2% and the residual activity (MAPK1 (human)) was 92.2%. The residual activity (RAF1 (human)) was 92.8%, the residual activity (CAMKK2 (human)) was 97.4% and the residual activity (LYN (human)) was 105% and 99.8%. It also gave a residual activity (NTRK2 (human)) of 94.5%, a residual activity (NEK4 (human)) of 98.6% and a residual activity (FYN (human)) of 116%. It also gave a residual activity (PRKCB2 (human)) of 99.8%, a residual activity (CDK7 CCNH MNAT1 (human)) of 120% and a residual activity (CAMK2A (human)) of 100%. It also gave a residual activity (CAMK1D (human)) of 96.4%, a residual activity (CSNK1A1 (human)) of 110% and a residual activity (FGFR3 (human)) of 98.2%. The residual activity (DAPK3 (human)) was 86.5%, the residual activity (DYRK1A (human)) was 102% and the residual activity (FER (human)) was 86.2%. For the same compound, the residual activity (MKNK2 (human)) was 87.9%, the residual activity (MAPK10 (human)) was 98% and the residual activity (MAPK8 (human)) was 99.1%. For the same compound, the residual activity (AKT1 (human)) was 101% and the residual activity (CDK5 CDK5R1 p35 (human)) was 99.8%.
With `COc1ccc(S(=O)(=O)N(CCO)c2ccccc2CN(C)C/C=C/c2ccc(Cl)cc2)cc1` the residual activity (CDK2 CCNE1 (human)) was 94%, the residual activity (CAMKK1 (human)) was 106% and the residual activity (JAK2 JH1 JH2 (human)) was 98.4%. For the same compound, the residual activity (PKN1 (human)) was 110%, the residual activity [1] was 110% and the residual activity (TTK (human)) was 83.3%. The residual activity (PRKCG (human)) was 95.1%, the residual activity (CSNK1G3 (human)) was 98.3% and the residual activity (STK33 (human)) was 97.3%. The residual activity (PIM3 (human)) was 105%, the residual activity (FLT1 (human)) was 94.7% and the residual activity (EPHB4 (human)) was 104%. For the same compound, the residual activity [2] was 110%, the residual activity (PAK1 (human)) was 96% and the residual activity (PRKCA (human)) was 98.2%. The residual activity (MST1R (human)) was 95.4%, the residual activity (MAPK14 (human)) was 95.1% and the residual activity (FGFR2 (human)) was 98.6%. For the same compound, the residual activity (DYRK2 (human)) was 87.5%, the residual activity (RPS6KA2 KD1 KD2 (human)) was 99.2% and the residual activity (MAPK1 (human)) was 97%. For the same compound, the residual activity (RAF1 (human)) was 93.7%, the residual activity (CAMKK2 (human)) was 90.7% and the residual activity (LYN (human)) was 92.3% and 96.8%. It also gave a residual activity (NTRK2 (human)) of 104%, a residual activity (NEK4 (human)) of 98.7% and a residual activity (FYN (human)) of 103%. It also gave a residual activity (PRKCB2 (human)) of 102%, a residual activity (CDK7 CCNH MNAT1 (human)) of 97.6% and a residual activity (CAMK2A (human)) of 107%. For the same compound, the residual activity (CAMK1D (human)) was 103%, the residual activity (CSNK1A1 (human)) was 99.3% and the residual activity (FGFR3 (human)) was 70.1%. It also gave a residual activity (DAPK3 (human)) of 101%, a residual activity (DYRK1A (human)) of 102% and a residual activity (FER (human)) of 97.1%. It also gave a residual activity (MKNK2 (human)) of 102%, a residual activity (MAPK10 (human)) of 95.5% and a residual activity (MAPK8 (human)) of 104%. It also gave a residual activity (AKT1 (human)) of 106% and a residual activity (CDK5 CDK5R1 p35 (human)) of 99.9%.
